Source: patent US12098144B2, “Piperazine indazole glucocorticoid receptor antagonists” (Corcept Therapeutics Incorporated, priority 2021, dated 2024)

The molecules below were run against T1, glucocorticoid receptor (Homo sapiens, UniProt P04150) (assay: Hep G2 TAT Ki: inhibition of dexamethasone-induced TAT in HepG2 cells (96 well)). Conditions: challenge of 100 nM dexamethasone, IC50 converted to Ki by Cheng and Prusoff equation.
T1 construct: endogenous in cells; ATCC cat
T1 sequence (P04150 1-777): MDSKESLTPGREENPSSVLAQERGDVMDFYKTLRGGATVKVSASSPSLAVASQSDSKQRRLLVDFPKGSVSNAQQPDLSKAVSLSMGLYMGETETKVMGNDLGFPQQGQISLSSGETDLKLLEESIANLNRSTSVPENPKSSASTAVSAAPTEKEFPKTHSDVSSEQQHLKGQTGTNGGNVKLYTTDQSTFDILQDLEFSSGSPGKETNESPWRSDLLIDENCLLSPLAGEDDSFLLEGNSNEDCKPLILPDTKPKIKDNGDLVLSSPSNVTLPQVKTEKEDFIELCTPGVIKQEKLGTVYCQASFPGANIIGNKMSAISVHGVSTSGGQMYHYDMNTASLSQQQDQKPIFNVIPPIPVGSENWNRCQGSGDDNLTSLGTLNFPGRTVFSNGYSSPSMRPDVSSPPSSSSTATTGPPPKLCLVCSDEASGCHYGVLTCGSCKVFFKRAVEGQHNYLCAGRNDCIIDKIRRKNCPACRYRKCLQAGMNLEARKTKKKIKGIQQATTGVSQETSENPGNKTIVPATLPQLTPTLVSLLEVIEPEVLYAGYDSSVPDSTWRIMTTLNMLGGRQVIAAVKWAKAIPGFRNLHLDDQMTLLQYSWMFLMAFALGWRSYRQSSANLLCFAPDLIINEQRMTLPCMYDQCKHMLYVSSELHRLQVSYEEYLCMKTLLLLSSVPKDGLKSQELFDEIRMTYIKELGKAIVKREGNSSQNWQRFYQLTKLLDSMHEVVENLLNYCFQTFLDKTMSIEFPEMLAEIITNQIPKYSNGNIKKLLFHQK
Assay type: cell-based
Summary of the method: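 Cells lysed 15 min at 4 °C; TAT enzyme reaction 2 h at 37 °C, stopped with KOH, 30 min further at 37 °C. Inhibition fitted to 4-parameter logistic.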

| Structure (SMILES) | Ki [nM] |
| --- | --- |
| Cc1cc2c(cnn2-c2ccc(F)cc2)cc1C1CN(S(=O)(=O)c2cn(CC(F)F)nc2C)CCN1CC(C)C (single isomer, unassigned) [Example 96, 5-(4-((1-(2,2-difluoroethyl)-3-methyl-1H-pyrazol-4-yl)sulfonyl)-1-isobutylpiperazin-2-yl)-1-(4-fluorophenyl)-6-methyl-1H-indazole] | 43 |
| COCCn1cc(S(=O)(=O)N2CCN(CC(C)C)C(c3cc4cnn(-c5ccc(F)cc5)c4cc3C)C2)cn1 (single isomer, unassigned) [Example 47, 1-(4-fluorophenyl)-5-(1-isobutyl-4-((1-(2-methoxyethyl)-1H-pyrazol-4-yl)sulfonyl)piperazin-2-yl)-6-methyl-1H-indazole] | 23 |
| Cc1cc2c(cnn2-c2ccc(F)cc2)cc1C1CN(S(=O)(=O)c2ccc(C(F)(F)F)nc2)CCN1CC(C)C (single isomer, unassigned) [Example 102, 1-(4-fluorophenyl)-5-(1-isobutyl-4-((6-(trifluoromethyl)pyridin-3-yl)sulfonyl)piperazin-2-yl)-6-methyl-1H-indazole] | 39 |
| Cc1cc2c(cnn2-c2ccc(F)cc2)cc1C1CN(S(=O)(=O)c2ccn(C)n2)CCN1CC(C)C (single isomer, unassigned) [Example 20, 1-(4-fluorophenyl)-5-(1-isobutyl-4-((1-methyl-1H-pyrazol-3-yl)sulfonyl)piperazin-2-yl)-6-methyl-1H-indazole] | 130 |
| CCn1cc(S(=O)(=O)N2CCN(CC(C)C(F)(F)F)C(c3cc4cnn(-c5ccc(F)cc5)c4cc3C)C2)cn1 (single isomer, unassigned) [Example 144, 5-(4-((1-ethyl-1H-pyrazol-4-yl)sulfonyl)-1-(3,3,3-trifluoro-2-methylpropyl)piperazin-2-yl)-1-(4-fluorophenyl)-6-methyl-1H-indazole] | 15 |

Continued, values first:

| Ki [nM] | Structure (SMILES) |
| --- | --- |
| 170 | Cc1cc2c(cnn2-c2ccc(F)cc2)cc1C1CN(S(=O)(=O)c2cnn(C)n2)CCN1Cc1ccccn1 (centres unmarked) [Example 70, 1-(4-fluorophenyl)-6-methyl-5-(4-((2-methyl-2H-1,2,3-triazol-4-yl)sulfonyl)-1-(pyridin-2-ylmethyl)piperazin-2-yl)-1H-indazole] |
| 58 | Cc1cc2c(cnn2-c2ccc(F)cc2)cc1C1CN(S(=O)(=O)c2cnn(C)n2)CCN1CCCC(F)(F)F (centres unmarked) [Example 68, 1-(4-fluorophenyl)-6-methyl-5-(4-((2-methyl-2H-1,2,3-triazol-4-yl)sulfonyl)-1-(4,4,4-trifluorobutyl)piperazin-2-yl)-1H-indazole] |
| 110 | CC(C)=CCN1CCN(S(=O)(=O)c2cnn(C)n2)CC1c1cc2cnn(-c3ccc(F)cc3)c2cc1C (centres unmarked) [Example 17, 1-(4-fluorophenyl)-6-methyl-5-(4-((2-methyl-2H-1,2,3-triazol-4-yl)sulfonyl)-1-(3-methylbut-2-en-1-yl)piperazin-2-yl)-1H-indazole] |
| 77 | Cc1cc2c(cnn2-c2ccc(F)cc2)cc1C1CN(S(=O)(=O)c2cnn(C)n2)CCN1C1CCC1 (single isomer, unassigned) [Example 25, 5-(1-cyclobutyl-4-((2-methyl-2H-1,2,3-triazol-4-yl)sulfonyl)piperazin-2-yl)-1-(4-fluorophenyl)-6-methyl-1H-indazole] |
| 60 | CCCn1ncc(S(=O)(=O)N2CCN(CC(C)C)C(c3cc4cnn(-c5ccc(F)cc5)c4cc3C)C2)n1 (centres unmarked) [Example 41, 1-(4-fluorophenyl)-5-(1-isobutyl-4-((2-propyl-2H-1,2,3-triazol-4-yl)sulfonyl)piperazin-2-yl)-6-methyl-1H-indazole] |
| 160 | Cc1cc2c(cnn2-c2ccc(F)cc2)cc1C1CN(S(=O)(=O)c2cnn(C)n2)CCN1CC1CCC1 (single isomer, unassigned) [Example 74, 5-(1-(cyclobutylmethyl)-4-((2-methyl-2H-1,2,3-triazol-4-yl)sulfonyl)piperazin-2-yl)-1-(4-fluorophenyl)-6-methyl-1H-indazole] |
